Test results from patent US6914045B2, “Glycopeptide antibiotics” (Wyeth Holdings Corporation, priority 2001, dated 2005).
≈ marks a conversion by molar mass, not a printed value.

Experiments:
Test in all cases: in vitro antibacterial evaluation, MIC by broth dilution
Format in all cases: cell-based
[1] = system: Escherichia coli; details: 18 hours at 35° C.
Outline: (§1)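 Broth dilution per NCCLS M7-A2 in Mueller-Hinton II medium, inoculum 5×10^5 CFU/mL, antibiotic range 64-0.06 μg/mL. MIC taken as lowest concentration inhibiting growth; Gram-positive panel includes recent clinical isolates resistant to methicillin, penicillin and/or vancomycin.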

[2] = system: Streptococcus sp.; details: broth dilution, 18 hours at 35° C.
Outline: as §1

[3] = system: Enterococcus sp.; details: broth dilution, 18 hours at 35° C.
Outline: as §1

[4] = system: Staphylococcus sp.; details: broth dilution, 18 hours at 35° C.
Outline: as §1

[5] = Enterococcus faecalis (ATCC 29212)
[6] = Enterococcus faecalis (GC 4553)
[7] = Enterococcus faecalis (GC 4554)

CCCCCCCC1OCC2OC(OC3C(CO)OC(Oc4ccc(CC5NC(=O)C(C(C)c6ccccc6)NC(=O)CNC(=O)C(CO)NC(=O)C(C(O)C6CNC(=N)N6C6OC(CO)C(O)C(O)C6O)NC(=O)C(C(O)C6CNC(=N)N6)NC5=O)cc4)C(O)C3O)C(O)C(O)C2O1 (stereo not drawn) [Example 109, Cyclo[glycyl-β-methylphenylalanyl-O-[4-O-(4,6-O-octylidenehexopyranosyl)hexopyranosyl]-tyrosyl-3-(2-iminoimidazolidin-4-yl)seryl-3-(3-hexopyranosyl-2-iminoimidazolidin-4-yl)-serylseryl]]
MIC Escherichia coli (ATCC 25922) ([1]; strain ATCC 25922): 16 µg/mL (≈ 11.4 µM)
MIC Streptococcus agalactiae (GC 4564) ([2]; Streptococcus agalactiae (GC 4564)): <0.5 µg/mL
MIC Streptococcus pneumoniae (GC 4565) ([2]; Streptococcus pneumoniae (GC 4565)): <0.5 µg/mL
MIC Streptococcus pyogenes (ID-3187) ([2]; Streptococcus pyogenes (ID-3187)): <0.5 µg/mL
MIC Streptococcus agalactiae (GC 4564) ([2]; strain GC 4564): <0.5 µg/mL
MIC Streptococcus pneumoniae (GC 4565) ([2]; strain GC 4565): <0.5 µg/mL
MIC Streptococcus pyogenes (ID-3187) ([2]; strain ID-3187): <0.5 µg/mL
MIC Enterococcus avium (GC 4558) ([3]; Enterococcus avium (GC 4558)): 2 µg/mL (≈ 1.42 µM)
MIC Enterococcus faecalis (ATCC 29212) [3, 5]: 2 µg/mL (≈ 1.42 µM)
MIC Enterococcus faecalis (GC 2242) ([3]; Enterococcus faecalis (GC 2242)): 2 µg/mL (≈ 1.42 µM)
MIC Enterococcus faecalis (GC 4552) ([3]; Enterococcus faecalis (GC 4552)): 2 µg/mL (≈ 1.42 µM)
MIC Enterococcus faecalis (GC 4553) [3, 6]: 2 µg/mL (≈ 1.42 µM)
MIC Enterococcus faecalis (GC 4554) [3, 7]: 2 µg/mL (≈ 1.42 µM)
MIC Enterococcus faecium (GC 2243) ([3]; Enterococcus faecium (GC 2243)): 1 µg/mL (≈ 0.712 µM)
MIC Enterococcus faecium (GC 4556) ([3]; Enterococcus faecium (GC 4556)): 2 µg/mL (≈ 1.42 µM)
MIC Enterococcus faecium (GC 4557) ([3]; Enterococcus faecium (GC 4557)): 1 µg/mL (≈ 0.712 µM)
MIC Enterococcus faecalis (ATCC 29212) ([3]; strain ATCC 29212): 2 µg/mL (≈ 1.42 µM)
MIC Enterococcus faecalis (GC 2242) ([3]; strain GC 2242): 2 µg/mL (≈ 1.42 µM)
MIC Enterococcus faecium (GC 2243) ([3]; strain GC 2243): 1 µg/mL (≈ 0.712 µM)
MIC Enterococcus faecalis (GC 4552) ([3]; strain GC 4552): 2 µg/mL (≈ 1.42 µM)
MIC Enterococcus faecalis (GC 4553) ([3]; strain GC 4553): 2 µg/mL (≈ 1.42 µM)
MIC Enterococcus faecalis (GC 4554) ([3]; strain GC 4554): 2 µg/mL (≈ 1.42 µM)
MIC Enterococcus faecium (GC 4556) ([3]; strain GC 4556): 2 µg/mL (≈ 1.42 µM)
MIC Enterococcus faecium (GC 4557) ([3]; strain GC 4557): 1 µg/mL (≈ 0.712 µM)
MIC Enterococcus avium (GC 4558) ([3]; strain GC 4558): 2 µg/mL (≈ 1.42 µM)
MIC Coagulase Negative Staphylococcus (GC 4547) [4]: 1 µg/mL (≈ 0.712 µM)
MIC Coagulase Negative Staphylococcus (GC 4548) [4]: <0.5 µg/mL
MIC Coagulase Negative Staphylococcus (GC 4549) [4]: 1 µg/mL (≈ 0.712 µM)
MIC Coagulase Negative Staphylococcus (GC 4551) [4]: 1 µg/mL (≈ 0.712 µM)
MIC Coagulase Negative Staphylococcus (ID-3941) [4]: 1 µg/mL (≈ 0.712 µM)
MIC Staphylococcus aureus (ATCC 29213) [4]: 1 µg/mL (≈ 0.712 µM)
MIC Staphylococcus aureus (GC 1131) [4]: 1 µg/mL (≈ 0.712 µM)
MIC Staphylococcus aureus (GC 4541) [4]: 1 µg/mL (≈ 0.712 µM)
MIC Staphylococcus aureus (GC 4542) [4]: 1 µg/mL (≈ 0.712 µM)
MIC Staphylococcus aureus (GC 4544) [4]: 1 µg/mL (≈ 0.712 µM)
MIC Staphylococcus aureus (GC 4545) [4]: 1 µg/mL (≈ 0.712 µM)
MIC Staphylococcus aureus-SMITH (GC 4543) [4]: 1 µg/mL (≈ 0.712 µM)
MIC Staphylococcus haemolyticus (GC 4546) [4]: 1 µg/mL (≈ 0.712 µM)
MIC Staphylococcus aureus (GC 1131) ([4]; inoculum 5×10^5 CFU/mL, strain GC 1131): 1 µg/mL (≈ 0.712 µM)
MIC Staphylococcus aureus (ATCC 29213) ([4]; strain ATCC 29213): 1 µg/mL (≈ 0.712 µM)
MIC Staphylococcus aureus (GC 4541) ([4]; strain GC 4541): 1 µg/mL (≈ 0.712 µM)
MIC Staphylococcus aureus (GC 4542) ([4]; strain GC 4542): 1 µg/mL (≈ 0.712 µM)
MIC Staphylococcus aureus (GC 4544) ([4]; strain GC 4544): 1 µg/mL (≈ 0.712 µM)
MIC Staphylococcus aureus (GC 4545) ([4]; strain GC 4545): 1 µg/mL (≈ 0.712 µM)
MIC Staphylococcus haemolyticus (GC 4546) ([4]; strain GC 4546): 1 µg/mL (≈ 0.712 µM)
MIC Coagulase Negative Staphylococcus (GC 4547) ([4]; strain GC 4547): 1 µg/mL (≈ 0.712 µM)
MIC Coagulase Negative Staphylococcus (GC 4548) ([4]; strain GC 4548): <0.5 µg/mL
MIC Coagulase Negative Staphylococcus (GC 4549) ([4]; strain GC 4549): 1 µg/mL (≈ 0.712 µM)
MIC Coagulase Negative Staphylococcus (GC 4551) ([4]; strain GC 4551): 1 µg/mL (≈ 0.712 µM)
MIC Coagulase Negative Staphylococcus (ID-3941) ([4]; strain ID-3941): 1 µg/mL (≈ 0.712 µM)
MIC Staphylococcus aureus-SMITH (GC 4543) ([4]; strain SMITH GC 4543): 1 µg/mL (≈ 0.712 µM)

CC(c1ccccc1)C1NC(=O)CNC(=O)C(CO)NC(=O)C(C(O)C2CNC(=N)N2C2OC(CO)C(O)C(O)C2O)NC(=O)C(C(O)C2CNC(=N)N2)NC(=O)C(Cc2ccc(OC3OC(CO)C(OC4OC(CO)C(O)C(O)C4O)C(O)C3O)c(N)c2)NC1=O (stereo not drawn) [Example 287, Cyclo[glycyl-β-methylphenylalanyl-2-amino-O-(4-O-hexopyranosylhexopyranosyl)tyrosyl-3-(2-iminoimidazolidin-4-yl)seryl-3-(3-hexopyranosyl-2-iminoimidazolidin-4-yl)serylseryl]]
MIC Escherichia coli (ATCC 25922) ([1]; Escherichia coli (ATCC 25922)): >64 µg/mL
MIC Escherichia coli (GC 4559) ([1]; Escherichia coli (GC 4559)): >64 µg/mL
MIC Escherichia coli (GC 4560) ([1]; Escherichia coli (GC 4560)): >64 µg/mL
MIC Streptococcus pneumoniae (ATCC 6301) ([2]; strain ATCC 6301): 64 µg/mL (≈ 48.8 µM)
MIC Streptococcus pneumoniae (GC 1894) ([2]; strain GC 1894): 64 µg/mL (≈ 48.8 µM)
MIC Streptococcus pyogenes (GC 4563) ([2]; strain GC 4563): >64 µg/mL
MIC Streptococcus agalactiae (GC 4564) ([2]; strain GC 4564): >64 µg/mL
MIC Streptococcus pneumoniae (GC 4565) ([2]; strain GC 4565): 64 µg/mL (≈ 48.8 µM)
MIC Enterococcus avium (GC 4558) ([3]; Enterococcus avium (GC 4558)): 64 µg/mL (≈ 48.8 µM)
MIC Enterococcus faecalis (ATCC 29212) [3, 5]: >64 µg/mL
MIC Enterococcus faecalis (GC 4553) [3, 6]: >64 µg/mL
MIC Enterococcus faecalis (GC 4554) [3, 7]: >64 µg/mL
MIC Enterococcus faecalis (GC 6189) ([3]; Enterococcus faecalis (GC 6189)): >64 µg/mL
MIC Enterococcus faecium (GC 2243) ([3]; Enterococcus faecium (GC 2243)): >64 µg/mL
MIC Enterococcus faecium (GC 4556) ([3]; Enterococcus faecium (GC 4556)): >64 µg/mL
MIC Enterococcus faecium (GC 4557) ([3]; Enterococcus faecium (GC 4557)): 64 µg/mL (≈ 48.8 µM)
MIC Enterococcus faecalis (ATCC 29212) ([3]; strain ATCC 29212): >64 µg/mL
MIC Enterococcus faecalis (GC 2242) ([3]; strain GC 2242): >64 µg/mL
MIC Enterococcus faecium (GC 2243) ([3]; strain GC 2243): >64 µg/mL
MIC Enterococcus faecalis (GC 2691) ([3]; strain GC 2691): >64 µg/mL
MIC Enterococcus faecalis (GC 3059) ([3]; strain GC 3059): >64 µg/mL
MIC Enterococcus faecalis (GC 4552) ([3]; strain GC 4552): >64 µg/mL
MIC Enterococcus faecalis (GC 4553) ([3]; strain GC 4553): >64 µg/mL
MIC Enterococcus faecalis (GC 4554) ([3]; strain GC 4554): >64 µg/mL
MIC Enterococcus faecium (GC 4556) ([3]; strain GC 4556): >64 µg/mL
MIC Enterococcus faecium (GC 4557) ([3]; strain GC 4557): 64 µg/mL (≈ 48.8 µM)
MIC Enterococcus avium (GC 4558) ([3]; strain GC 4558): 64 µg/mL (≈ 48.8 µM)
MIC Enterococcus faecalis (GC 6189) ([3]; strain GC 6189): >64 µg/mL
MIC Coagulase Negative Staphylococcus (GC 4547) [4]: >64 µg/mL
MIC Coagulase Negative Staphylococcus (GC 4548) [4]: >64 µg/mL
MIC Coagulase Negative Staphylococcus (GC 4549) [4]: >64 µg/mL
MIC Coagulase Negative Staphylococcus (GC 4551) [4]: >64 µg/mL
MIC Coagulase Negative Staphylococcus (GC 6257) [4]: >64 µg/mL
MIC Staphylococcus aureus (ATCC 29213) [4]: >64 µg/mL
MIC Staphylococcus aureus (GC 1131) [4]: >64 µg/mL
MIC Staphylococcus aureus (GC 3051) [4]: >64 µg/mL
MIC Staphylococcus aureus (GC 3053) [4]: >64 µg/mL
MIC Staphylococcus aureus (GC 4541) [4]: >64 µg/mL
MIC Staphylococcus aureus (GC 4542) [4]: >64 µg/mL
MIC Staphylococcus aureus (GC 4544) [4]: >64 µg/mL
MIC Staphylococcus aureus (GC 4545) [4]: >64 µg/mL
MIC Staphylococcus aureus-SMITH (GC 4543) [4]: >64 µg/mL
MIC Staphylococcus haemolyticus (GC 4546) [4]: >64 µg/mL
MIC Staphylococcus aureus (ATCC 29213) ([4]; strain ATCC 29213): >64 µg/mL
MIC Staphylococcus aureus (GC 1131) ([4]; strain GC 1131): >64 µg/mL
MIC Staphylococcus aureus (GC 3051) ([4]; strain GC 3051): >64 µg/mL
MIC Staphylococcus aureus (GC 3053) ([4]; strain GC 3053): >64 µg/mL
MIC Staphylococcus aureus (GC 4541) ([4]; strain GC 4541): >64 µg/mL
MIC Staphylococcus aureus (GC 4542) ([4]; strain GC 4542): >64 µg/mL
MIC Staphylococcus aureus (GC 4544) ([4]; strain GC 4544): >64 µg/mL
MIC Staphylococcus aureus (GC 4545) ([4]; strain GC 4545): >64 µg/mL
MIC Staphylococcus haemolyticus (GC 4546) ([4]; strain GC 4546): >64 µg/mL
MIC Coagulase Negative Staphylococcus (GC 4547) ([4]; strain GC 4547): >64 µg/mL
MIC Coagulase Negative Staphylococcus (GC 4548) ([4]; strain GC 4548): >64 µg/mL
MIC Coagulase Negative Staphylococcus (GC 4549) ([4]; strain GC 4549): >64 µg/mL
MIC Coagulase Negative Staphylococcus (GC 4551) ([4]; strain GC 4551): >64 µg/mL
MIC Coagulase Negative Staphylococcus (GC 6257) ([4]; strain GC 6257): >64 µg/mL
MIC Staphylococcus aureus-SMITH (GC 4543) ([4]; strain SMITH GC 4543): >64 µg/mL
